# Results: patent US8637525B2, “Compounds for the reduction of beta-amyloid production” (Bristol-Myers Squibb Company, priority 2009, dated 2014)
# Counter-ions that a name gives are not always drawn.
# Tested on: Aβ1-42 production
# Assay: Cellular assay for inhibition of Aβ1-42 production (H4 APP751 SWE clone 8.20)
# Type: cell-based
# Settings: 19 h, H4 APP751 SWE clone 8.20 cells, 19 h incubation; class symbols; read-out: Activity Rating (Aβ42 cellular IC50)
# In short: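 Cells incubate with compound for 19 h (37 °C, 5% CO2), the plate is briefly spun, and antibody mix is added straight to the wells: Wallac-conjugated 565 against the Aβ42 C-terminal neoepitope and APC-conjugated 26D6 against the Aβ N-terminus. After overnight sealing at 4 °C, signal is counted and IC50 fitted.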
row,SMILES,IC50
1,"CCN(C)c1nc(Nc2ccc(-n3cnc(Cl)c3)c(OC)c2)nc2c1COCC2c1ccc(F)cc1 (stereo not shown) [Example 62A, N2-(4-(4-chloro-1H-imidazol-1-yl)-3-methoxyphenyl)-N4-ethyl-8-(4-fluorophenyl)-N4-methyl-7,8-dihydro-5H-pyrano[4,3-d]pyrimidine-2,4-diamine]",1.5 to 9.9 nM
2,"CCNc1nc(Nc2ccc(-n3cnc(Cl)c3)c(OC)c2)nc2c1CCN(C)C2c1ccc(F)cc1 (stereo not shown) [Example 175, N2-(4-(4-chloro-1H-imidazol-1-yl)-3-methoxyphenyl)-N4-ethyl-8-(4-fluorophenyl)-7-methyl-5,6,7,8-tetrahydropyrido[3,4-d]pyrimidine-2,4-diamine]",10 to 100 nM
3,"CCN(C)c1nc(Nc2ccc(-n3cnc(Cl)c3)c(OC)c2)nc2c1CNCC2c1ccc(F)cc1 (stereo not shown) [Example 161, N2-(4-(4-chloro-1H-imidazol-1-yl)-3-methoxyphenyl)-N4-ethyl-8-(4-fluorophenyl)-N4-methyl-5,6,7,8-tetrahydropyrido[4,3-d]pyrimidine-2,4-diamine]",100 to 1000 nM
4,"CCNc1nc(Nc2ccc(-n3ncnc3C)c(F)c2)nc2c1COCC2c1ccc(F)c(F)c1 (racemic) [Example 116, 8-(3,4-difluorophenyl)-N4-ethyl-N2-(3-fluoro-4-(5-methyl-1H-1,2,4-triazol-1-yl)phenyl)-7,8-dihydro-5H-pyrano[4,3-d]pyrimidine-2,4-diamine, TFA]",10 to 100 nM
5,"CNc1nc(Nc2ccc(-n3cnc(Cl)c3)c(OC)c2)nc2c1COCC2c1ccc(C(F)(F)F)cc1 (racemic) [Example 120, N2-(4-(4-chloro-1H-imidazol-1-yl)-3-methoxyphenyl)-N4-methyl-8-(4-(trifluoromethyl)phenyl)-7,8-dihydro-5H-pyrano[4,3-d]pyrimidine-2,4-diamine, TFA]",10 to 100 nM
6,"CNc1nc(Nc2ccc(C(=O)N(C)C)cc2)nc2c1CCC2c1ccccc1 (stereo not shown) [Example 243, N,N-dimethyl-4-(4-(methylamino)-7-phenyl-6,7-dihydro-5H-cyclopenta[d]pyrimidin-2-ylamino)benzamide]",100 to 1000 nM
7,"CNc1nc(Nc2ccc(C(C)(C)C)cc2)nc2c1CCC2c1ccccc1 (stereo not shown) [Example 234, N2-(4-tert-butylphenyl)-N4-methyl-7-phenyl-6,7-dihydro-5H-cyclopenta[d]pyrimidine-2,4-diamine]",> 1000 nM
8,"CNc1nc(Nc2ccc(-n3cnc(Cl)c3)c(OC)c2)nc2c1CN(C)CC2c1ccc(F)cc1 (stereo not shown) [Example 163A, N2-(4-(4-chloro-1H-imidazol-1-yl)-3-methoxyphenyl)-8-(4-fluorophenyl)-N4,6-dimethyl-5,6,7,8-tetrahydropyrido[4,3-d]pyrimidine-2,4-diamine]",1.5 to 9.9 nM
9,"CNc1nc(Nc2ccc(CC#N)cc2)nc2c1CCC2c1ccccc1 (stereo not shown) [Example 231, 2-(4-(4-(methylamino)-7-phenyl-6,7-dihydro-5H-cyclopenta[d]pyrimidin-2-ylamino)phenyl)acetonitrile]",100 to 1000 nM
10,"COc1cc(Nc2nc3c(c(N4CC(C)(OC)C4)n2)CCC3c2ccc(F)cc2)ccc1-n1cnc(Cl)c1 (stereo not shown) [Example 191, N-(4-(4-chloro-1H-imidazol-1-yl)-3-methoxyphenyl)-7-(4-fluorophenyl)-4-(3-methoxy-3-methylazetidin-1-yl)-6,7-dihydro-5H-cyclopenta[d]pyrimidin-2-amine]",10 to 100 nM
11,"CCNc1nc(Nc2ccc(-n3ncnc3C)c(F)c2)nc2c1CN(CC(F)(F)F)CC2c1ccccc1 (stereo not shown) [Example 146, N4-ethyl-N2-(3-fluoro-4-(5-methyl-1H-1,2,4-triazol-1-yl)phenyl)-8-phenyl-6-(2,2,2-trifluoroethyl)-5,6,7,8-tetrahydropyrido[4,3-d]pyrimidine-2,4-diamine]",10 to 100 nM
12,COc1cc(Nc2nc3c(c(N4CC[C@@H](F)C4)n2)COCC3c2ccc(OC(F)(F)F)cc2)ccc1-n1cnc(Cl)c1 (stereo partly shown) [Example 123A],10 to 100 nM
13,"COc1cc(Nc2nc3c(c(N(C)C)n2)CCC3c2ccc(F)cc2)ccc1-n1cnc(Cl)c1 (racemic) [Example 46, N^2-(4-(4-Chloro-1H-imidazol-1-yl)-3-methoxyphenyl)-7-(4-fluorophenyl)-N^4,N^4-dimethyl-6,7-dihydro-5H-cyclopenta[d]pyrimidine-2,4-diamine]",1.5 to 9.9 nM
14,"CNc1nc(Nc2ccc(-n3cnc(Cl)c3)c(OC)c2)nc2c1CN(C)CC2c1ccccc1 (stereo not shown) [Example 148A, N2-(4-(4-chloro-1H-imidazol-1-yl)-3-methoxyphenyl)-N4,6-dimethyl-8-phenyl-5,6,7,8-tetrahydropyrido[4,3-d]pyrimidine-2,4-diamine]",1.5 to 9.9 nM

# Same assay, conditions: 19 h, H4 APP751 SWE clone 8.20 cells, 19 h incubation; read-out: Activity Rating (Aβ42 cellular IC50), numeric value
row,SMILES,IC50
1,"CCNc1nc(Nc2ccc(-n3ncnc3C)c(F)c2)nc2c1CN(CC(F)F)CC2c1ccccc1 (stereo not shown) [Example 194B, 6-(2,2-difluoroethyl)-N4-ethyl-N2-(3-fluoro-4-(5-methyl-1H-1,2,4-triazol-1-yl)phenyl)-8-phenyl-5,6,7,8-tetrahydropyrido[4,3-d]pyrimidine-2,4-diamine]",175 nM
2,"COc1cc(Nc2nc3c(c(N4CC(C)(OC)C4)n2)CCC3c2ccc(F)cc2)ccc1-n1cnc(Cl)c1 (stereo not shown) [Example 191B, N-(4-(4-chloro-1H-imidazol-1-yl)-3-methoxyphenyl)-7-(4-fluorophenyl)-4-(3-methoxy-3-methylazetidin-1-yl)-6,7-dihydro-5H-cyclopenta[d]pyrimidin-2-amine]",96 nM
3,"CNc1nc(Nc2ccc(Cl)c(OC)c2)nc2c1CCC2c1ccccc1 (stereo not shown) [Example 220, N2-(4-chloro-3-methoxyphenyl)-N4-methyl-7-phenyl-6,7-dihydro-5H-cyclopenta[d]pyrimidine-2,4-diamine]",550 nM

# Same assay, conditions: H4 APP751 SWE clone 8.20 cells, 19 h incubation; class symbols; read-out: Activity Rating (Aβ42 cellular IC50)
row,SMILES,IC50
1,"CCN(C)c1nc(Nc2ccc(-n3cnc(Cl)c3)c(OC)c2)nc2c1CCC2c1ccccc1 (single isomer, unassigned) [Example 5B, N^2-(4-(4-chloro-1H-imidazol-1-yl)-3-methoxyphenyl)-N^4-ethyl-N^4-methyl-7-phenyl-6,7-dihydro-5H-cyclopenta[d]pyrimidine-2,4-diamine]",10 to 100 nM
2,"CNc1nc(Nc2ccc(-n3ncnc3C)c(F)c2)nc2c1CCC2c1ccccc1 (single isomer, unassigned) [Example 3A, N^2-(3-fluoro-4-(5-methyl-1H-1,2,4-triazol-1-yl)phenyl)-N^4-methyl-7-phenyl-6,7-dihydro-5H-cyclopenta[d]pyrimidine-2,4-diamine]",1.5 to 9.9 nM
3,"CCC1CCCN1c1nc(Nc2ccc(-n3cnc(Cl)c3)c(OC)c2)nc2c1CCC2c1ccc(F)cc1 (single isomer, unassigned) [Example 23B, N-(4-(4-chloro-1H-imidazol-1-yl)-3-methoxyphenyl)-4-(2-ethylpyrrolidin-1-yl)-7-(4-fluorophenyl)-6,7-dihydro-5H-cyclopenta[d]pyrimidin-2-amine]",100 to 1000 nM
4,"CNc1nc(Nc2ccc(-n3ncnc3C)c(F)c2)nc2c1COC2c1ccc(F)cc1 (stereo not shown) [Example 82A, N2-(3-fluoro-4-(5-methyl-1H-1,2,4-triazol-1-yl)phenyl)-7-(4-fluorophenyl)-N4-methyl-5,7-dihydrofuro[3,4-d]pyrimidine-2,4-diamine]",1.5 to 9.9 nM
5,"CCNc1nc(Nc2ccc(-n3ncnc3C)c(F)c2)nc2c1CN(S(C)(=O)=O)CC2c1ccccc1 (stereo not shown) [Example 140A, N4-ethyl-N2-(3-fluoro-4-(5-methyl-1H-1,2,4-triazol-1-yl)phenyl)-6-(methylsulfonyl)-8-phenyl-5,6,7,8-tetrahydropyrido[4,3-d]pyrimidine-2,4-diamine]",1.5 to 9.9 nM
6,"CNc1nc(Nc2ccc(-n3cnc(C)n3)c(F)c2)nc2c1CN(S(=O)(=O)C1CC1)CC2c1ccccc1 (stereo not shown) [Example 141A, 6-(cyclopropylsulfonyl)-N2-(3-fluoro-4-(3-methyl-1H-1,2,4-triazol-1-yl)phenyl)-N4-methyl-8-phenyl-5,6,7,8-tetrahydropyrido[4,3-d]pyrimidine-2,4-diamine]",1.5 to 9.9 nM
7,"CCN(C)c1nc(Nc2ccc(-n3cnc(Cl)c3)c(OC)c2)nc2c1CCCC2c1ccccc1 (single isomer, unassigned) [Example 124A, N^2-(4-(4-Chloro-1H-imidazol-1-yl)-3-methoxyphenyl)-N^4-ethyl-N^4-methyl-8-phenyl-5,6,7,8-tetrahydroquinazoline-2,4-diamine]",1.5 to 9.9 nM
8,"Cc1ncnn1-c1ccc(Nc2nc3c(c(N4CC(F)(F)C4)n2)CCC3c2ccc(F)cc2)cc1F (single isomer, unassigned) [Example 16B, 4-(3,3-difluoroazetidin-1-yl)-N-(3-fluoro-4-(5-methyl-1H-1,2,4-triazol-1-yl)phenyl)-7-(4-fluorophenyl)-6,7-dihydro-5H-cyclopenta[d]pyrimidin-2-amine]",100 to 1000 nM
9,"CNc1nc(Nc2ccc(-n3cnc(C)n3)c(OC)c2)nc2c1COCC2c1ccc(Cl)cc1 (single isomer, unassigned) [Example 71A, 8-(4-chlorophenyl)-N^2-(3-methoxy-4-(3-methyl-1H-1,2,4-triazol-1-yl)phenyl)-N^4-methyl-7,8-dihydro-5H-pyrano[4,3-d]pyrimidine-2,4-diamine]",1.5 to 9.9 nM

# Same assay, conditions: H4 APP751 SWE clone 8.20 cells, 19 h incubation; read-out: Activity Rating (Aβ42 cellular IC50), numeric value
row,SMILES,IC50
1,"CCNc1nc(Nc2ccc(-n3cnc(C)n3)c(F)c2)nc2c1CN(CC(F)F)CC2c1ccccc1 (stereo not shown) [Example 195A, 6-(2,2-difluoroethyl)-N4-ethyl-N2-(3-fluoro-4-(3-methyl-1H-1,2,4-triazol-1-yl)phenyl)-8-phenyl-5,6,7,8-tetrahydropyrido[4,3-d]pyrimidine-2,4-diamine]",26 nM
2,"COc1cc(Nc2nc3c(c(N(C)C)n2)COCC3c2ccc(Cl)cc2)ccc1-n1cnc(Cl)c1 (single isomer, unassigned) [Example 65A, N^2-(4-(4-chloro-1H-imidazol-1-yl)-3-methoxyphenyl)-8-(4-chlorophenyl)-N^4,N^4-dimethyl-7,8-dihydro-5H-pyrano[4,3-d]pyrimidine-2,4-diamine]",5.3 nM
